This is an account of results in PubChem BioAssay (NCI).

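Growth conditions: 96-well plates. Treatment: test compound, 48 hours, 5 concentrations. Analysis: linear interpolation between bracketing concentrations; unreached endpoints set to highest concentration. GI50 = concentration required for 50% inhibition of growth. Definition used: TGI = concentration required for complete inhibition of growth.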

Test systems include M14 melanoma; SN12C renal; HCT-116 colon; SK-MEL-5 melanoma; NCI-H522 lung; MDA-MB-231 breast; LOX IMVI melanoma; OVCAR-5 ovarian; HOP-62 NSCLC; SF-539 CNS.
Common to all, as to test: NCI anticancer screen, dose series, 48 h

As to `COc1ccc(/C=C2\N=C3N(Cc4ccccc4)C=C(N)N3C2=O)cc1`, the TGI with M14 melanoma, in the assay on SN12C renal, in the assay with HCT-116 colon, with SK-MEL-5 melanoma, in the assay with NCI-H522 lung and in the assay on MDA-MB-231 breast was above 100 µM throughout. Also, the TGI in the assay with LOX IMVI melanoma, in the assay with OVCAR-5 ovarian, in the assay with HOP-62 NSCLC and in the assay on SF-539 CNS was above 100 µM in each case.
Regarding `COC(=O)c1c2c(cc3c1CC1(Cc4cc5c(cc4C1)CCCC5)C3)CCCC2`, the TGI in the assay on M14 melanoma is above 100 µM; in the assay on SN12C renal, above 100 µM; with HCT-116 colon, 28.6 µM; with SK-MEL-5 melanoma, above 100 µM; in the assay on NCI-H522 lung, above 100 µM; with MDA-MB-231 breast it was above 100 µM. Also, the TGI with LOX IMVI melanoma, with OVCAR-5 ovarian, in the assay with HOP-62 NSCLC and with SF-539 CNS was above 100 µM in each case.
For `COc1cc(/C=C2\C(=O)N(c3ccc(Cl)cc3)C(c3ccccc3)S2(=O)=O)cc(OC)c1OC` (configuration not stated), the TGI was above 61.6 µM in the assay with M14 melanoma; above 100 µM in the assay on SN12C renal; above 100 µM in the assay with HCT-116 colon; above 22 µM in the assay with SK-MEL-5 melanoma; 60.5 µM with NCI-H522 lung; above 100 µM in the assay on MDA-MB-231 breast. Moreover, the TGI in the assay with LOX IMVI melanoma is above 100 µM; in the assay with OVCAR-5 ovarian, above 100 µM; in the assay with HOP-62 NSCLC it was above 96.7 µM; with SF-539 CNS, above 100 µM.
Take `O=C(Nc1nnc(-c2ccccc2)o1)C(SC(=S)N1CCCC1)c1ccccc1` (configuration not stated): the TGI is above 100 µM in the assay on M14 melanoma; above 100 µM with SN12C renal; 79.5 µM with HCT-116 colon; 38.2 µM with SK-MEL-5 melanoma; 77.8 µM in the assay on NCI-H522 lung; above 100 µM in the assay on MDA-MB-231 breast. Further, the TGI with LOX IMVI melanoma is 41.4 µM; with OVCAR-5 ovarian it was above 100 µM; in the assay on HOP-62 NSCLC, above 100 µM; with SF-539 CNS, 91.8 µM.
For `CCOC(=O)/C=C(/OCC)[C@@H]1C(C(=O)c2ccc(Cl)cc2)[C@@H]1/C(=C\C(=O)OCC)OCC` (some centres not stated), the TGI is above 100 µM in the assay on M14 melanoma; above 100 µM in the assay with SN12C renal; above 100 µM with HCT-116 colon; above 59.9 µM with SK-MEL-5 melanoma; above 59.2 µM in the assay with NCI-H522 lung; above 100 µM in the assay on MDA-MB-231 breast. Further, the TGI with LOX IMVI melanoma, with OVCAR-5 ovarian, in the assay on HOP-62 NSCLC and in the assay on SF-539 CNS was above 100 µM in each case.
Regarding `Cc1cc(C)nc(NS(=O)(=O)c2ccc(NC(=O)c3ccc4nc5ccccc5c(Nc5ccc(S(=O)(=O)N=C(N)N)cc5)c4c3)cc2)n1`, the TGI in the assay on M14 melanoma, in the assay on SN12C renal, in the assay on HCT-116 colon, with SK-MEL-5 melanoma, with NCI-H522 lung and in the assay on MDA-MB-231 breast was above 100 µM in each case. For the same compound, the TGI with LOX IMVI melanoma, in the assay with OVCAR-5 ovarian, in the assay on HOP-62 NSCLC and with SF-539 CNS was above 100 µM each time.
As to `COc1ccc(C2CC(c3cccc(Nc4ccncc4)c3)=NN2c2ccccc2)cc1` (configuration not stated), the GI50 with M14 melanoma is 1.87 µM; in the assay on SN12C renal it was 1.72 µM; in the assay on HCT-116 colon it was 1.68 µM; in the assay with SK-MEL-5 melanoma it was 1.8 µM; with NCI-H522 lung it was 1.81 µM; in the assay with MDA-MB-231 breast it was 1.62 µM. Besides, the GI50 in the assay on LOX IMVI melanoma is 1.74 µM; in the assay with OVCAR-5 ovarian, 3.29 µM; with HOP-62 NSCLC, 2.25 µM; in the assay on SF-539 CNS, 1.61 µM. Further, the TGI with M14 melanoma amounted to 3.74 µM; with SN12C renal, 3.23 µM; in the assay with HCT-116 colon, 3.29 µM; with SK-MEL-5 melanoma, 3.28 µM; with NCI-H522 lung it was 3.81 µM; in the assay on MDA-MB-231 breast, 3.04 µM. The TGI in the assay with LOX IMVI melanoma amounted to 3.11 µM; with OVCAR-5 ovarian it was 12.1 µM; with HOP-62 NSCLC, 5.81 µM; in the assay on SF-539 CNS, 3.04 µM.
As to `COC(=O)[C@]1(c2cc3ccccc3[nH]2)CC2CNC1C1OC(C)(C)OC21` (some centres not stated), the TGI in the assay with M14 melanoma, with SN12C renal, in the assay on HCT-116 colon, with SK-MEL-5 melanoma, in the assay on NCI-H522 lung and in the assay with MDA-MB-231 breast was above 100 µM each time. For the same compound, the TGI in the assay with LOX IMVI melanoma, with OVCAR-5 ovarian, in the assay with HOP-62 NSCLC and in the assay with SF-539 CNS was above 100 µM each time.
With `COc1ccc(Nc2nc(N)c(C(=O)c3ccco3)s2)cc1`, the TGI in the assay with M14 melanoma is above 100 µM; with SN12C renal, above 100 µM; in the assay with HCT-116 colon it was above 66.4 µM; with SK-MEL-5 melanoma, 99.7 µM; with NCI-H522 lung, above 100 µM; with MDA-MB-231 breast, above 100 µM. Besides, the TGI in the assay on LOX IMVI melanoma is above 100 µM; with OVCAR-5 ovarian, above 100 µM; in the assay with HOP-62 NSCLC it was above 100 µM; with SF-539 CNS it was 63.2 µM.
On to `CCOC(=O)NC(Nc1ccc(C(=O)O)cc1)(C(F)(F)F)C(F)(F)F`, for which the TGI in the assay with M14 melanoma, in the assay with SN12C renal, in the assay on HCT-116 colon, in the assay with SK-MEL-5 melanoma, with NCI-H522 lung and in the assay with MDA-MB-231 breast was above 100 µM in each case. The TGI with LOX IMVI melanoma, with OVCAR-5 ovarian, in the assay on HOP-62 NSCLC and in the assay with SF-539 CNS was above 100 µM each time.
Turning to `Cc1cc(C)n(C(C)(C(=O)Cc2ccccc2)n2nc(C)cc2C)n1`, the TGI in the assay with M14 melanoma, in the assay with SN12C renal, with HCT-116 colon, in the assay on SK-MEL-5 melanoma, in the assay on NCI-H522 lung and in the assay with MDA-MB-231 breast was above 100 µM in each case. Besides, the TGI in the assay with LOX IMVI melanoma, in the assay on OVCAR-5 ovarian, with HOP-62 NSCLC and with SF-539 CNS was above 100 µM each time.
Regarding `CC(=O)CCN1CC2CN=NC2(C#N)C1` (configuration not stated), the GI50 with M14 melanoma and in the assay with SF-539 CNS was above 100 µM throughout. The TGI in the assay with M14 melanoma is above 100 µM; with SN12C renal it was above 100 µM; with HCT-116 colon, above 100 µM; in the assay with SK-MEL-5 melanoma, above 100 µM; in the assay on NCI-H522 lung it was above 20.9 µM; with MDA-MB-231 breast, above 100 µM. Also, the TGI in the assay on LOX IMVI melanoma, in the assay with OVCAR-5 ovarian, in the assay on HOP-62 NSCLC and with SF-539 CNS was above 100 µM throughout.
